Measurements as given in ChEMBL document CHEMBL3885881, “DrugMatrix”.

Species: Rattus norvegicus
Experiment: DrugMatrix - Regimen: Daily Repeat
Assay type: toxicity, organism-based, Sprague-Dawley
Parameters: regimen Daily Repeat, gender Male, age 6-8 weeks
Conditions: in vivo, po, route oral GAVAGE, vehicle 100 % WATER; for ABSOLUTE BASOPHIL / ABSOLUTE EOSINOPHIL / ABSOLUTE LYMPHOCYTE / ABSOLUTE MONOCYTE / ABSOLUTE SEGMENTED NEUTROPHIL / BASOPHIL / EOSINOPHIL / ERYTHROCYTE COUNT / HEMATOCRIT / HEMOGLOBIN / LEUKOCYTE COUNT / LYMPHOCYTE / MEAN CORPUSCULAR HEMOGLOBIN / MEAN CORPUSCULAR HEMOGLOBIN CONCENTRATION / MEAN CORPUSCULAR VOLUME / MONOCYTE / NEUTROPHIL / NUCLEATED RED BLOOD CELLS / PLATELET COUNT: tissue Blood; for ALANINE AMINOTRANSFERASE / ALBUMIN / ALKALINE PHOSPHATASE / ASPARTATE AMINOTRANSFERASE / BLOOD UREA NITROGEN / CARBON DIOXIDE / CHLORIDE / CHOLESTEROL / CREATINE PHOSPHOKINASE / CREATININE / GLUCOSE / LACTATE DEHYDROGENASE / LIPASE / PHOSPHORUS / POTASSIUM / SODIUM / TOTAL BILIRUBIN / TOTAL PROTEIN / URIC ACID: tissue Plasma
[1] = 30 mg/kg, 72 h, dose level Low, time 3 day
[2] = 30 mg/kg, 120 h, dose level Low, time 5 day
[3] = 1000 mg/kg, 72 h, dose level High, time 3 day
[4] = 1000 mg/kg, 120 h, dose level High, time 5 day

## CCCCc1nc(Cl)c(CO)n1Cc1ccc(-c2ccccc2-c2nn[nH]n2)cc1 [LOSARTAN]
[1]
  ABSOLUTE BASOPHIL: 0 CELLS/uL
  ABSOLUTE EOSINOPHIL: 0 CELLS/uL
  ABSOLUTE LYMPHOCYTE: 14016.67 CELLS/uL
  ABSOLUTE MONOCYTE: 389.33 CELLS/uL
  ABSOLUTE SEGMENTED NEUTROPHIL: 894 CELLS/uL
  BASOPHIL: 0%
  EOSINOPHIL: 0%
  ERYTHROCYTE COUNT: 5.45 x10E6/uL
  HEMATOCRIT: 35.03%
  HEMOGLOBIN: 13.17 G/DL
  LEUKOCYTE COUNT: 15.3 x10E3/uL
  LYMPHOCYTE: 91.33%
  MEAN CORPUSCULAR HEMOGLOBIN: 24.17 pg
  MEAN CORPUSCULAR HEMOGLOBIN CONCENTRATION: 37.6 G/DL
  MEAN CORPUSCULAR VOLUME: 64.2 fL
  MONOCYTE: 2.67%
  NEUTROPHIL: 6%
  NUCLEATED RED BLOOD CELLS: 0 /100WBC
  PLATELET COUNT: 1281.67 x10E3/uL
  ALANINE AMINOTRANSFERASE: 42 u/L
  ALBUMIN: 4.4 G/DL
  ALKALINE PHOSPHATASE: 318.67 u/L
  ASPARTATE AMINOTRANSFERASE: 77.33 u/L
  BLOOD UREA NITROGEN: 20 mg/dL
  CARBON DIOXIDE: 25 mmol/L
  CHLORIDE: 103 MEQ/L
  CHOLESTEROL: 78 mg/dL
  CREATINE PHOSPHOKINASE: 190.67 u/L
  CREATININE: 0.23 mg/dL
  GLUCOSE: 178 mg/dL
  LACTATE DEHYDROGENASE: 89.33 u/L
  LIPASE: 9.33 u/L
  PHOSPHORUS: 13.6 mg/dL
  POTASSIUM: 7.08 MEQ/L
  SODIUM: 145.07 MEQ/L
  TOTAL BILIRUBIN: 0.17 mg/dL
  TOTAL PROTEIN: 6.1 G/DL
  URIC ACID: 2.83 mg/dL
[2]
  ABSOLUTE BASOPHIL: 0 CELLS/uL
  ABSOLUTE EOSINOPHIL: 152.67 CELLS/uL
  ABSOLUTE LYMPHOCYTE: 13450.67 CELLS/uL
  ABSOLUTE MONOCYTE: 299.67 CELLS/uL
  ABSOLUTE SEGMENTED NEUTROPHIL: 963.67 CELLS/uL
  BASOPHIL: 0%
  EOSINOPHIL: 1.33%
  ERYTHROCYTE COUNT: 5.55 x10E6/uL
  HEMATOCRIT: 35.3%
  HEMOGLOBIN: 13.53 G/DL
  LEUKOCYTE COUNT: 14.87 x10E3/uL
  LYMPHOCYTE: 90%
  MEAN CORPUSCULAR HEMOGLOBIN: 24.37 pg
  MEAN CORPUSCULAR HEMOGLOBIN CONCENTRATION: 38.33 G/DL
  MEAN CORPUSCULAR VOLUME: 63.6 fL
  MONOCYTE: 2%
  NEUTROPHIL: 6.67%
  NUCLEATED RED BLOOD CELLS: 0.33 /100WBC
  PLATELET COUNT: 1227.33 x10E3/uL
  ALANINE AMINOTRANSFERASE: 55 u/L
  ALBUMIN: 4.43 G/DL
  ALKALINE PHOSPHATASE: 365.33 u/L
  ASPARTATE AMINOTRANSFERASE: 83.67 u/L
  BLOOD UREA NITROGEN: 26 mg/dL
  CARBON DIOXIDE: 23.67 mmol/L
  CHLORIDE: 109 MEQ/L
  CHOLESTEROL: 82 mg/dL
  CREATINE PHOSPHOKINASE: 302.33 u/L
  CREATININE: 0.19 mg/dL
  GLUCOSE: 156.67 mg/dL
  LACTATE DEHYDROGENASE: 189 u/L
  LIPASE: 9.5 u/L
  PHOSPHORUS: 12.1 mg/dL
  POTASSIUM: 6.02 MEQ/L
  SODIUM: 144.45 MEQ/L
  TOTAL BILIRUBIN: 0.0667 mg/dL
  TOTAL PROTEIN: 6.2 G/DL
  URIC ACID: 1.5 mg/dL
[3]
  ABSOLUTE BASOPHIL: 0 CELLS/uL
  ABSOLUTE EOSINOPHIL: 0 CELLS/uL
  ABSOLUTE LYMPHOCYTE: 16308 CELLS/uL
  ABSOLUTE MONOCYTE: 476 CELLS/uL
  ABSOLUTE SEGMENTED NEUTROPHIL: 949.33 CELLS/uL
  BASOPHIL: 0%
  EOSINOPHIL: 0%
  ERYTHROCYTE COUNT: 5.24 x10E6/uL
  HEMATOCRIT: 33.6%
  HEMOGLOBIN: 12.73 G/DL
  LEUKOCYTE COUNT: 17.73 x10E3/uL
  LYMPHOCYTE: 92.33%
  MEAN CORPUSCULAR HEMOGLOBIN: 24.3 pg
  MEAN CORPUSCULAR HEMOGLOBIN CONCENTRATION: 37.9 G/DL
  MEAN CORPUSCULAR VOLUME: 64.13 fL
  MONOCYTE: 2.67%
  NEUTROPHIL: 5%
  NUCLEATED RED BLOOD CELLS: 0 /100WBC
  PLATELET COUNT: 1384.67 x10E3/uL
  ALANINE AMINOTRANSFERASE: 41.67 u/L
  ALBUMIN: 4.4 G/DL
  ALKALINE PHOSPHATASE: 365.67 u/L
  ASPARTATE AMINOTRANSFERASE: 77.33 u/L
  BLOOD UREA NITROGEN: 39.33 mg/dL
  CARBON DIOXIDE: 21.67 mmol/L
  CHLORIDE: 106.33 MEQ/L
  CHOLESTEROL: 96 mg/dL
  CREATINE PHOSPHOKINASE: 290.67 u/L
  CREATININE: 0.26 mg/dL
  GLUCOSE: 165.33 mg/dL
  LACTATE DEHYDROGENASE: 296 u/L
  LIPASE: 10 u/L
  PHOSPHORUS: 12.6 mg/dL
  POTASSIUM: 6.89 MEQ/L
  SODIUM: 144.3 MEQ/L
  TOTAL BILIRUBIN: 0.2 mg/dL
  TOTAL PROTEIN: 5.93 G/DL
  URIC ACID: 1.73 mg/dL
[4]
  ABSOLUTE BASOPHIL: 0 CELLS/uL
  ABSOLUTE EOSINOPHIL: 186 CELLS/uL
  ABSOLUTE LYMPHOCYTE: 17950.67 CELLS/uL
  ABSOLUTE MONOCYTE: 194 CELLS/uL
  ABSOLUTE SEGMENTED NEUTROPHIL: 1069.33 CELLS/uL
  BASOPHIL: 0%
  EOSINOPHIL: 1%
  ERYTHROCYTE COUNT: 5.34 x10E6/uL
  HEMATOCRIT: 32.67%
  HEMOGLOBIN: 12.67 G/DL
  LEUKOCYTE COUNT: 19.4 x10E3/uL
  LYMPHOCYTE: 92.67%
  MEAN CORPUSCULAR HEMOGLOBIN: 23.73 pg
  MEAN CORPUSCULAR HEMOGLOBIN CONCENTRATION: 38.77 G/DL
  MEAN CORPUSCULAR VOLUME: 61.27 fL
  MONOCYTE: 1%
  NEUTROPHIL: 5.33%
  NUCLEATED RED BLOOD CELLS: 0 /100WBC
  PLATELET COUNT: 1450.33 x10E3/uL
  ALANINE AMINOTRANSFERASE: 48.67 u/L
  ALBUMIN: 4.4 G/DL
  ALKALINE PHOSPHATASE: 418.33 u/L
  ASPARTATE AMINOTRANSFERASE: 72 u/L
  BLOOD UREA NITROGEN: 59.67 mg/dL
  CARBON DIOXIDE: 24.33 mmol/L
  CHLORIDE: 110.67 MEQ/L
  CHOLESTEROL: 80.67 mg/dL
  CREATINE PHOSPHOKINASE: 480.33 u/L
  CREATININE: 0.37 mg/dL
  GLUCOSE: 175.33 mg/dL
  LACTATE DEHYDROGENASE: 59.33 u/L
  LIPASE: 9 u/L
  PHOSPHORUS: 11.37 mg/dL
  POTASSIUM: 7.02 MEQ/L
  SODIUM: 146.03 MEQ/L
  TOTAL BILIRUBIN: 0.13 mg/dL
  TOTAL PROTEIN: 5.9 G/DL
  URIC ACID: 1.83 mg/dL
